# According to US7902369B2, “Diaryl-substituted five-membered heterocycle derivative” (Banyu Pharmaceutical Co., Ltd., priority 2004, dated 2011):
# How the values were obtained:
# male ICR(CD-1) mouse = experiment: Suppression of mouse spontaneous movement level increased by methamphetamine; format: in vivo; settings: po, 1 h, 3 mg/kg orally 30 min before 2 mg/kg methamphetamine, movement level during 60 min
# Procedure: With the use of male ICR(CD-1) mouse (20-40 g), movement level was measured with the use of movement level-measuring device detecting animal migration by infrared radiation sensor (Neuroscience). Compounds or appropriate solvents were administered to mice, and after administrating normal saline solution or 2 mg/kg of methamphetamine 30 min later, the movement level during 60 min from after the administration was measured. By making the difference between the movement level of the methamphetamine-administered group and that of the solvents-administered group during measuring period as 100%, the movement level of test compound-administered group was shown by inhibition % for estimation.
# rats = experiment: Suppression of the reduction of prepulse inhibition (PPI) by methamphetamine; format: in vivo; settings: orally 30 min before 3 mg/kg methamphetamine; rat startle reaction, 120 dB pulse with prepulse
# Procedure: Systems tested for prepulse inhibition which can detect specifically antipsychotic effect were also investigated. By using startle reflex measuring device (San Diego Instruments) which can dectect movement of rats, startle reaction to 120 dB-sound stimulation (pulse stimulation) combined with 63, 66 and 72 dB-sound stimulation prior to pulse stimulation (prepulse) was measured in the presence of 60 dB-background sound. The compounds of the present invention or appropriate solvents were administered to rats, and normal saline solution or 3 mg/kg of methamphetamine was administered 30 min later, to measure startle reation. Startle reactions to pulse stimulation and to stimulation with prepulse were named A and B respectively, and the prepulse inhibition (herein referred to as PPI) level was calculated with the following formula. Calculating formula of PPI:PPI(%)=100×(A−B)/A
# In contrast to startle reaction toward pulse stimulation, in the presence of preminary prepulse of 72 dB, startle reaction decreased by about 50% (prepulse inhibition). When pre-treating with methamphemine, strate reaction decreased only by about 20%, and decrease of prepulse inhibition was observed. Moreover, by administrating orally the compounds having mGluR1 antagonist effect 30 min before methamphetamine administration to the present models, decrease of prepulse inhibition by methamphetamine had tendance to recover.
# [1] = biological target: T1, human metabotropic glutamate receptor 1a (mGluR1a) (Homo sapiens, UniProt Q13255); experiment: mGluR1 inhibiting effect: intracellular calcium concentration (FLIPR) in mGluR1a-expressing CHO cells; format: cell-based; settings: suppression of calcium increase by 10 μM glutamic acid, test compound added 5 min before agonist
# T1 construct: expressed in transfected cells
# Procedure: MGlu1 inhibiting effect was measured by using the compound of the present invention.
# With the use of Lipofectamine (Gibco BRL), cDNA of human metabotropic glutamate receptor 1a (mGluR1a) were transfected to CHO cells, to obtain cells expressing mGluR1a in a stable manner. CHO cells which expressed mGluR1a were cultured in DMEM medium containing 10% dialysis fetal bovine serum, 1% proline, 100 units/ml of penicillin, 0.1 mg of streptomycin sulfate and […] glutamine.
# 4 μM of Fluo-3 was incubated to mGluR1a-expressing CHO cells plated with 50000 cells per 1 well of 96-well black plate (Packard, Viewplate) the day before the measurement, in a CO2 incubator for 1 hour. The cells were washed 4 times with HBSS solution containing 20 mM HEPES and 25 mM probenecid, and the intracellular calcium concentration was measured with the use of Fluorescence Imaging Plate Reader (FLIPR; Mollecular Device). The test compounds and glutamic acid were adjusted with HBSS solution containing 20 mM HEPES and 2.5 mM Probenecid. The test compounds were added 5 min before agonist stimulation, and 10 μM of glutamic acid was used as agonist.
# The calcium increased with 10 μM of glutamic acid was suppressed dose-dependently.
# T1 sequence (Q13255 19-1194): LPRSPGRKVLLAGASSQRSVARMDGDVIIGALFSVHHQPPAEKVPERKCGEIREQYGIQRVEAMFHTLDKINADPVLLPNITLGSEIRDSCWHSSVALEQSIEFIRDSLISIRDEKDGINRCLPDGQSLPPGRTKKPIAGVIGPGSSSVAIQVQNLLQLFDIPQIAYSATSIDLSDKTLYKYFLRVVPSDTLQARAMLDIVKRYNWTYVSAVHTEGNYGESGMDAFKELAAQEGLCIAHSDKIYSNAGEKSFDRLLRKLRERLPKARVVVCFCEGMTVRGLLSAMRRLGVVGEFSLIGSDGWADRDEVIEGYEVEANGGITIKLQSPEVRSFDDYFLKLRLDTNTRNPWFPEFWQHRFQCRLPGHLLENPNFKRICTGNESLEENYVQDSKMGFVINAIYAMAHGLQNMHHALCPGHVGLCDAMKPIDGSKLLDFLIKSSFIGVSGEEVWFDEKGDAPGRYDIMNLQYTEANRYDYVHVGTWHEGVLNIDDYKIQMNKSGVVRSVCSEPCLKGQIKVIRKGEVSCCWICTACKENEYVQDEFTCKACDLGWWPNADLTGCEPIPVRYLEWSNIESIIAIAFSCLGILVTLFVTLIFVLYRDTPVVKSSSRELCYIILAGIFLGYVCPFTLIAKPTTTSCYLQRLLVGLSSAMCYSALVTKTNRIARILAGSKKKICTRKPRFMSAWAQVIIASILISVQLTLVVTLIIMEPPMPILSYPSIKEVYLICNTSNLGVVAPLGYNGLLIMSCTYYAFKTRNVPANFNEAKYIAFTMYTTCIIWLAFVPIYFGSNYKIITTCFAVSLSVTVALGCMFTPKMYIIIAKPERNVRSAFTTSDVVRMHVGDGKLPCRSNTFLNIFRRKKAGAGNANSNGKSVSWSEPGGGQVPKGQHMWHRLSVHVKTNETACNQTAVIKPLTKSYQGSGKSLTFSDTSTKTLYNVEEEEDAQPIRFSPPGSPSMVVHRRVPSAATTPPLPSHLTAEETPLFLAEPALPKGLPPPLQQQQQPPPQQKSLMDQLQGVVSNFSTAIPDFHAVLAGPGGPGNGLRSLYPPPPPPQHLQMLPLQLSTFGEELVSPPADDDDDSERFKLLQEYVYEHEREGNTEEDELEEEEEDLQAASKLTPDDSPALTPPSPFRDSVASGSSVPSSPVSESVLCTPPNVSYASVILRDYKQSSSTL
Compound,IC50 [1],inhibition in vivo at 3 mg/kg (male ICR(CD-1) mouse),Inhibition effect to PPI disorder (rats)
"Cc1c(-c2ccc3c(c2)CN(C(C)C)C3=O)nnn1-c1cccnc1F [Example 36, 4-(2-isopropyl-1-oxo-isoindoline-5-yl)-1-(2-fluoropyridine-3-yl)-5-methyl-1H-[1,2,3]triazole]",6.5 nM,> 50%,yes
"CCCN1Cc2cc(-c3nnn(-c4cccnc4F)c3C)ccc2C1=O [Example 85, 1-(2-fluoropyridine-3-yl)-5-methyl-4-(2-propyl-1-oxo-isoindoline-5-yl)-1H-[1,2,3]triazole]",4.4 nM,> 50%,yes
"Cc1c(-c2ccc3c(c2)CN(C2CC2)C3=O)nnn1-c1ccccc1F [Example 87, 4-(2-cyclopropyl-1-oxo-isoindoline-5-yl)-1-(2-fluorobenzene-3-yl)-5-methyl-1H-[1,2,3]triazole]",4.3 nM,> 50%,yes
"Cc1c(-c2ccc3c(c2)CN(C(C)C)C3=O)nnn1-c1ccc(F)cc1F [Example 119, 4-(2-isopropyl-1-oxo-isoindoline-5-yl)-1-(2,4-difluorophenyl)-5-methyl-1H-[1,2,3]triazole]",4.3 nM,> 50%,yes
"Cc1c(-c2ccc3c(c2)CN(CC(C)(C)O)C3=O)nnn1-c1ccc(F)cc1 [Example 181, 4-(2-(2-hydroxy-2-methyl-propyl)-1-oxo-isoindoline-5-yl)-1-(4-fluorophenyl)-5-methyl-1H-[1,2,3]triazole]",18 nM,> 50%,yes
"Cc1c(-c2ccc3c(=O)n(CC(C)(C)O)ccc3c2)nnn1-c1ccc(F)cc1 [Example 204, 4-(2-(2-hydroxy-2-methyl-propyl)-1-oxo-isoquinoline-6-yl)-1-(4-fluorophenyl)-5-methyl-1H-[1,2,3]triazole]",3.4 nM,> 50%,yes

# Compounds with a lower IC50 [1], results first:
IC50 [1],Compound,inhibition in vivo at 3 mg/kg (male ICR(CD-1) mouse),Inhibition effect to PPI disorder (rats)
3.2 nM,"Cc1c(-c2ccc3c(c2)CN(C2CC2)C3=O)nnn1-c1cccnc1F [Example 49, 4-(2-cyclopropyl-1-oxo-isoindoline-5-yl)-1-(2-fluoropyridine-3-yl)-5-methyl-1H-[1,2,3]triazole]",> 50%,yes
2.5 nM,"Cc1c(-c2ccc3c(c2)CN(CC(F)F)C3=O)nnn1-c1ccc(F)cc1 [Example 151, 4-(2-(2,2-difluoroethyl)-1-oxo-isoindoline-5-yl)-1-(4-fluorophenyl)-5-methyl-1H-[1,2,3]triazole]",> 50%,yes
2.4 nM,Cc1c(-c2ccc3nc(CC(C)(C)O)ccc3c2)nnn1-c1ccc(F)cc1 [Example 227],> 50%,yes
2.3 nM,"Cc1c(-c2ccc3c(c2)CC2(CC2)C3=O)nnn1-c1cccnc1F [Example 34, 1-(2-fluoropyridine-3-yl)-5-methyl-4-(1-oxoindane-2-spiro-1′-cyclopropyl-5-yl)-1H-[1,2,3]triazole]",> 50%,yes
